Results: patent US12370166B2, “Pentadecanoylcarnitine for treatment of conditions related to the quality of aging and longevity” (EPITRACKER, INC., priority 2021, dated 2025)
pEC50, pIC50: −log10 of the molar value.

How the values were obtained:
[1] = target: T1, Cholinergic receptor muscarinic 1 (Homo sapiens, UniProt P11229); assay: Receptor-based pharmacological activity, antagonist; format: biochemical; conditions: for pIC50: read-out: RC50 (IC50)
T1 sequence (P11229 1-460): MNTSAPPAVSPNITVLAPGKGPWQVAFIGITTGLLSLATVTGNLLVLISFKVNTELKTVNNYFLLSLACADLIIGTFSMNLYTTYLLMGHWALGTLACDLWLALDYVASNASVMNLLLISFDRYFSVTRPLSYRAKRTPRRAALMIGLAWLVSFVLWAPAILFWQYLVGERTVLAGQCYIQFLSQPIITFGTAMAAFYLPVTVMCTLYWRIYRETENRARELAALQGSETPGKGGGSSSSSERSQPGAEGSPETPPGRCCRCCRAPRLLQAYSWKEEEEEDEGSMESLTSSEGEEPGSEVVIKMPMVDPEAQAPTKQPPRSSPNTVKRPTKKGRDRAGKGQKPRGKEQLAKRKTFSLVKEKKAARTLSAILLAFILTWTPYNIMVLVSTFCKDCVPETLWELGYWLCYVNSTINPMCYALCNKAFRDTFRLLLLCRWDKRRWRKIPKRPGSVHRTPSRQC
Method: (§1) Methods for this study have been previously described (Venn-Watson, S., Lumpkin, R., Dennis, E. A. Efficacy of dietary odd-chain saturated fatty acid pentadecanoic acid parallels broad associated health benefits in humans: could it be essential? Sci Rep 10:8161 (2020)). Significant activities of pentadecanoylcarnitine were those tagged as having maximum pharmacological activities that were greater than or equal to 70% that of the internal control between the concentrations of 1 to 20 μM. Significant pharmacological activities caused by pentadecanoylcarnitine were compared with results from the same assays using pentadecanoic acid (C15:0).

Histamine H2 receptor = Histamine H2 receptor (Homo sapiens, UniProt P25021); assay: as above; format: biochemical; conditions: for pIC50: read-out: RC50 (IC50)
Sequence of Histamine H2 receptor (P25021 whole entry): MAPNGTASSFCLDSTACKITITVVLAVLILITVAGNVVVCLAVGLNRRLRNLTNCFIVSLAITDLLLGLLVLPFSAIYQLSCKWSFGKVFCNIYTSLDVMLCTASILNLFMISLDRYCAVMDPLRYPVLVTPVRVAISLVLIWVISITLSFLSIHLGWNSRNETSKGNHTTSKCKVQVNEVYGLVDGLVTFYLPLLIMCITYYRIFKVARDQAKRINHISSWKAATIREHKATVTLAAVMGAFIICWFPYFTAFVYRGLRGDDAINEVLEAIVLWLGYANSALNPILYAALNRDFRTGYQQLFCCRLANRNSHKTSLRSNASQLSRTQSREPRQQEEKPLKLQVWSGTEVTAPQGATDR
Method: as §1

Histamine H1 receptor = Histamine H1 receptor (Homo sapiens, UniProt P35367); assay: as above; format: biochemical; conditions: for pIC50: read-out: RC50 (IC50)
Sequence of Histamine H1 receptor (P35367 whole entry): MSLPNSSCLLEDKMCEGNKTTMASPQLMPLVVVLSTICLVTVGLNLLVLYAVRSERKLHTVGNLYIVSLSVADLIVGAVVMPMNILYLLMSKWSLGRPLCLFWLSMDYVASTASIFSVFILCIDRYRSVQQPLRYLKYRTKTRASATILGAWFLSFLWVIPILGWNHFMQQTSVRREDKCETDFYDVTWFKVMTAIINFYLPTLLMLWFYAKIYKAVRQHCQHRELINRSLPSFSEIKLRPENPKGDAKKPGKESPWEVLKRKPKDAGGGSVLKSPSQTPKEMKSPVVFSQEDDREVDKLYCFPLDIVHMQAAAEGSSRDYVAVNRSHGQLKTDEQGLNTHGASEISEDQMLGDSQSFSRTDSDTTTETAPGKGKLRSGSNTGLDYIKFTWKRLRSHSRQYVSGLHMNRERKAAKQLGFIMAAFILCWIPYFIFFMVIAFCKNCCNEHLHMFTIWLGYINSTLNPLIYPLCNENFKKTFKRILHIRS
Method: as §1

Dopamine receptor D1 = Dopamine receptor D1 (Homo sapiens, UniProt P21728); assay: as above; format: biochemical; conditions: for pIC50: read-out: RC50 (IC50)
Sequence of Dopamine receptor D1 (P21728 whole entry, species assumed): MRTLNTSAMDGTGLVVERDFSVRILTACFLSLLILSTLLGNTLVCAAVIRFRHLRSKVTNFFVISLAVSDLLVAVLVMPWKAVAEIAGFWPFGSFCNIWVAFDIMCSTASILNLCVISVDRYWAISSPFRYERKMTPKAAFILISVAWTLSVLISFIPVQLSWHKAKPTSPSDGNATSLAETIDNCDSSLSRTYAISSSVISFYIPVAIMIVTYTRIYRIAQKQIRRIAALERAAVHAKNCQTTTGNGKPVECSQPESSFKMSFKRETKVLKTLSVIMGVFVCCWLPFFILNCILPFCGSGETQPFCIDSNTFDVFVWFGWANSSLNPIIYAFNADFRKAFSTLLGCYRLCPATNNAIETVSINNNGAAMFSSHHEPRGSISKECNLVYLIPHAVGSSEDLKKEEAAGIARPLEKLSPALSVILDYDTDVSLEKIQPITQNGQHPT
Method: as §1

5-HT1B receptor = 5-HT1B receptor (Homo sapiens, UniProt P28222); assay: Receptor-based pharmacological activity, agonist; format: biochemical; conditions: for pEC50: read-out: RC50 (EC50)
Sequence of 5-HT1B receptor (P28222 whole entry): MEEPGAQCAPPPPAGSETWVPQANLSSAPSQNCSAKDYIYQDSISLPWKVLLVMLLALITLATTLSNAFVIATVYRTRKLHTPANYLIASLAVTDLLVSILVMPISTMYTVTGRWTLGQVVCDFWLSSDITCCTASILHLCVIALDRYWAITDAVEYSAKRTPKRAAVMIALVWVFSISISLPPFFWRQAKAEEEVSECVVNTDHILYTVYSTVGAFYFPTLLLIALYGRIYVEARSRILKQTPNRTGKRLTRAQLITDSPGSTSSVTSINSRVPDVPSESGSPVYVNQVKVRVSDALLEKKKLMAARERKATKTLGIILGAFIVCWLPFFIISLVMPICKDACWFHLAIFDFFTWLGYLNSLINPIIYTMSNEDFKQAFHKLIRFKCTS
Method: as §1

5-HT1A receptor = target: T2, 5-HT1A receptor (Homo sapiens, UniProt P08908); assay: Receptor-based pharmacological activity, agonist; format: biochemical; conditions: for pEC50: read-out: RC50 (EC50)
T2 sequence (P08908 1-422): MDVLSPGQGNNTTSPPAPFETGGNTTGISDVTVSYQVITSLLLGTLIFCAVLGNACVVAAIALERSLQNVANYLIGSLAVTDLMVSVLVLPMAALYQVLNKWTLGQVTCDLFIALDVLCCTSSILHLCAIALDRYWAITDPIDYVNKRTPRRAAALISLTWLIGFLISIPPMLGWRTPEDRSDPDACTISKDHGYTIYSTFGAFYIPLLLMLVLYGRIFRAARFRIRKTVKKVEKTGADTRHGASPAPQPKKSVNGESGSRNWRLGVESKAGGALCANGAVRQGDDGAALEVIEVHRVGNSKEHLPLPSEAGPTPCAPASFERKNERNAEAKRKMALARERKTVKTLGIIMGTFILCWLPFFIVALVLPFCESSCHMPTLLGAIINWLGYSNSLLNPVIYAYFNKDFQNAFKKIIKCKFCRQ
Method: as §1

α-2A adrenergic receptor = target: T3, α-2A adrenergic receptor (Homo sapiens, UniProt P08913); assay: Receptor-based pharmacological activity, agonist; format: biochemical; conditions: for pEC50: read-out: RC50 (EC50)
T3 sequence (P08913 1-465): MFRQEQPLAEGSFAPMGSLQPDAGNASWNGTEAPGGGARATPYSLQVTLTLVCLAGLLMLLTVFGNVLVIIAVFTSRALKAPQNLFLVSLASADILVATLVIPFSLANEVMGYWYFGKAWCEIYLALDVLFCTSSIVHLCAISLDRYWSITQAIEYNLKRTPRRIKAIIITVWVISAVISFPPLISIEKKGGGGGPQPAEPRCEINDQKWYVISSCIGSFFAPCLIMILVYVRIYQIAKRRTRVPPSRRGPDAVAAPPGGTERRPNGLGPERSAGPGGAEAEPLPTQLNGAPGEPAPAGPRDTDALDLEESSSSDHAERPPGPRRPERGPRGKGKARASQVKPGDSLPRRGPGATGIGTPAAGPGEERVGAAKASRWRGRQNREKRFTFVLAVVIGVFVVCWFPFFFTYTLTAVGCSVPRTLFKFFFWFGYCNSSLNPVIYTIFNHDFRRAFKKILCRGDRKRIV
Method: as §1

Cannabinoid receptor 1 = Cannabinoid receptor 1 (Homo sapiens, UniProt P21554); assay: Receptor-based pharmacological activity, agonist; format: biochemical; conditions: for pEC50: read-out: RC50 (EC50); for Pharmacological activity at cannabinoid receptor 1: at approximately 1 to 20 μM
Sequence of Cannabinoid receptor 1 (P21554 whole entry, species assumed): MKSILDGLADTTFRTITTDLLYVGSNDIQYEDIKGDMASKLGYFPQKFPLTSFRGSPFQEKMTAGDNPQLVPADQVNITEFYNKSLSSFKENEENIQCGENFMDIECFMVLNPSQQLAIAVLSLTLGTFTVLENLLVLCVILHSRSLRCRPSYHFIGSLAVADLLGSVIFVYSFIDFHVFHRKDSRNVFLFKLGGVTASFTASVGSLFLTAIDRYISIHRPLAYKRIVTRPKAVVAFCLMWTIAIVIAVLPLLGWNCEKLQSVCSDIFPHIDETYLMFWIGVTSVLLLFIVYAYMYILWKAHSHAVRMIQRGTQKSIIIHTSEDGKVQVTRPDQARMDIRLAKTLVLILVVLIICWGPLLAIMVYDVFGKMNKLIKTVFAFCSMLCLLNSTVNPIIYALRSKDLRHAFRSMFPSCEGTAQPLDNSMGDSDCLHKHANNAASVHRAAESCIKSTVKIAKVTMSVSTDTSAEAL
Method: as §1

Serotonin Transporter = Serotonin Transporter (Homo sapiens, UniProt P31645); assay: Transporter pharmacological activity, blocker; format: biochemical; conditions: for pIC50: read-out: RC50 (IC50)
Sequence of Serotonin Transporter (P31645 whole entry): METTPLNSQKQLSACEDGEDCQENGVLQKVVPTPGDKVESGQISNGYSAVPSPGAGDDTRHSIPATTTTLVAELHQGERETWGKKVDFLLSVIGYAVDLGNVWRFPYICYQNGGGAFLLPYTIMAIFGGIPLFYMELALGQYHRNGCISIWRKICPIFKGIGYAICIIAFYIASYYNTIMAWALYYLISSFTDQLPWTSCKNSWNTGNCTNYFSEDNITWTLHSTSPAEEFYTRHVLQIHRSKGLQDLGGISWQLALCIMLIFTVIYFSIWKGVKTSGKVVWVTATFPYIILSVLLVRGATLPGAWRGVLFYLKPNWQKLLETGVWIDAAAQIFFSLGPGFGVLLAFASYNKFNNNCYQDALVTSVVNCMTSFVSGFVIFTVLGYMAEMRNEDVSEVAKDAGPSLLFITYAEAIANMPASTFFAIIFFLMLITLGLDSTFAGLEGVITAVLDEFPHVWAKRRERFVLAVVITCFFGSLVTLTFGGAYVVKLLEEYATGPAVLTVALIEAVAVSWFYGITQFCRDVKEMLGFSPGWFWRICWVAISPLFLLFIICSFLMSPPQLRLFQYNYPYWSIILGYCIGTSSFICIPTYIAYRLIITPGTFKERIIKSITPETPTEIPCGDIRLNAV
Method: as §1

BT cell system = assay: Human primary cell phenotypic profiling, BT cell system (asthma, oncology, autoimmunity, allergy); format: cell-based; conditions: 6.7 μM stated for pentadecanoylcarnitine
Method: Methods for this human primary cell phenotypic profiling study were those previously described (Venn-Watson, S., Lumpkin, R., Dennis, E. A. Efficacy of dietary odd-chain saturated fatty acid pentadecanoic acid parallels broad associated health benefits in humans: could it be essential? Sci Rep 10:8161 (2020)). Significant activities of pentadecanoylcarnitine were those that were equal to or greater than 0.1|log 10| at 6.7 μM. Biomarkers with significant changes caused by pentadecanoylcarnitine were compared with results from the same study using pentadecanoic acid (C15:0).

[2] = Antagonist, positive control Atropine
[3] = Antagonist, positive control Tiotidine
[4] = Antagonist, positive control Mepyramine
[5] = Antagonist, positive control SCH 39166
[6] = Agonist, positive control Serotonin hydrochloride, 1 to 20 μM, read-out: Max Response (%) Compared to Positive Control
[7] = Agonist, positive control Serotonin hydrochloride
[8] = Agonist, positive control UK 14304
[9] = Agonist, positive control CP 55940
[10] = read-out: Max Response (%) Compared to Positive Control
[11] = Blocker, positive control Clomipramine
[12] = Agonist, positive control Serotonin hydrochloride, 1 to 20 μM

## CCCCCCCCCCCCCCC(=O)O [Pentadecanoic acid (C15:0), Pentadecanoic acid]
[1]; Antagonist, positive control Atropine, 1 to 20 μM, read-out: Max Response (%) Compared to Positive Control
  Emax: 0%
[1]; [2]
  pIC50: < 4.70
Histamine H2 receptor; Antagonist, positive control Tiotidine, 1 to 20 μM, read-out: Max Response (%) Compared to Positive Control
  Emax: 2%
Histamine H2 receptor; [3]
  pIC50: < 4.70
Histamine H1 receptor; Antagonist, positive control Mepyramine, 1 to 20 μM, read-out: Max Response (%) Compared to Positive Control
  Emax: 5%
Histamine H1 receptor; [4]
  pIC50: < 4.70
Dopamine receptor D1; Antagonist, positive control SCH 39166, 1 to 20 μM, read-out: Max Response (%) Compared to Positive Control
  Emax: 4%
Dopamine receptor D1; [5]
  pIC50: < 4.70
5-HT1B receptor; [6]
  Emax: 0%
5-HT1B receptor; [7]
  pEC50: < 4.70
5-HT1A receptor; [6]
  Emax: 0%
5-HT1A receptor; [7]
  pEC50: < 4.70
α-2A adrenergic receptor; Agonist, positive control UK 14304, 1 to 20 μM, read-out: Max Response (%) Compared to Positive Control
  Emax: 22%
α-2A adrenergic receptor; [8]
  pEC50: < 4.70
Cannabinoid receptor 1; [9]
  pEC50: < 4.70
Cannabinoid receptor 1; [10]
  Emax: 25%
Serotonin Transporter; [11]
  pIC50: < 4.70
Serotonin Transporter; [10]
  Emax: 1%
BT cell system
  sIL-6 biomarker change: +0.12 log 10
  sTNF-α biomarker change: +0.14 log 10

## CCCCCCCCCCCCCCC(=O)O[C@H](CC(=O)[O-])C[N+](C)(C)C [Pentadecanoylcarnitine, pentadecanoylcarnitine]
[1]; Antagonist, positive control Atropine, 1 to 20 μM
  Max Response (%) Compared to Positive Control: 77%
[1]; [2]
  pIC50: 4.98
[1]; at approximately 1 to 20 μM
  Pharmacological activity at cholinergic receptor muscarinic 1: antagonist
Histamine H2 receptor; Antagonist, positive control Tiotidine, 1 to 20 μM
  Max Response (%) Compared to Positive Control: 98%
Histamine H2 receptor; [3]
  pIC50: 5.21
Histamine H2 receptor; at approximately 1 to 20 μM
  Pharmacological activity at histamine H2 receptor: antagonist
Histamine H1 receptor; Antagonist, positive control Mepyramine, 1 to 20 μM
  Max Response (%) Compared to Positive Control: 71%
Histamine H1 receptor; [4]
  pIC50: 4.96
Histamine H1 receptor; at approximately 1 to 20 μM
  Pharmacological activity at histamine H1 receptor: antagonist
Dopamine receptor D1; Antagonist, positive control SCH 39166, 1 to 20 μM
  Max Response (%) Compared to Positive Control: 105%
Dopamine receptor D1; [5]
  pIC50: 5.21
Dopamine receptor D1; at approximately 1 to 20 μM
  Pharmacological activity at dopamine receptor D1: antagonist
5-HT1B receptor; [12]
  Max Response (%) Compared to Positive Control: 74%
5-HT1B receptor; [7]
  pEC50: 5.03
5-HT1B receptor; at approximately 1 to 20 μM
  Pharmacological activity at 5-HT1B receptor: agonist
5-HT1A receptor; [12]
  Max Response (%) Compared to Positive Control: 78%
5-HT1A receptor; [7]
  pEC50: 5.02
5-HT1A receptor; at approximately 1 to 20 μM
  Pharmacological activity at 5-HT1A receptor: agonist
α-2A adrenergic receptor; Agonist, positive control UK 14304, 1 to 20 μM
  Max Response (%) Compared to Positive Control: 105%
α-2A adrenergic receptor; [8]
  pEC50: 5.23
α-2A adrenergic receptor; at approximately 1 to 20 μM
  Pharmacological activity at α-2A adrenergic receptor: agonist
Cannabinoid receptor 1; Agonist, positive control CP 55940, 1 to 20 μM
  Max Response (%) Compared to Positive Control: 111%
Cannabinoid receptor 1; [9]
  pEC50: 5.43
Cannabinoid receptor 1
  Pharmacological activity at cannabinoid receptor 1: agonist
Cannabinoid receptor 1; listed as pentadecenoyl carnitine
  Pharmacological activity at cannabinoid receptor 1: fully activates
Serotonin Transporter; Blocker, positive control Clomipramine, 1 to 20 μM
  Max Response (%) Compared to Positive Control: 83%
Serotonin Transporter; [11]
  pIC50: 5.13
Serotonin Transporter; at approximately 1 to 20 μM
  Pharmacological activity at SERT: blocker
BT cell system
  sIL-6 biomarker change: −0.13 log 10
  sTNF-α biomarker change: −0.10 log 10
